Data as given in the NIST ThermoML archive (doi:10.1016/j.tca.2010.09.004).
Numbers after ± are expanded uncertainties.

Conditions: 101.33 kPa, Liquid; for speed of sound: Sing-around technique in a fixed-path interferometer; for mass density: Vibrating tube method

## CCC(C)=O [butanone]
293.15 K
  speed of sound: 1212.3 ± 1 m/s
  mass density: 805.351 ± 0.19 kg/m3
298.15 K
  speed of sound: 1191 ± 1 m/s
  mass density: 800.077 ± 0.19 kg/m3
303.15 K
  speed of sound: 1170.8 ± 1 m/s
  mass density: 794.779 ± 0.19 kg/m3

## CCCCNCCCC [dibutylamine]
293.15 K
  speed of sound: 1261.2 ± 1 m/s
  mass density: 759.571 ± 0.2 kg/m3
298.15 K
  speed of sound: 1241.3 ± 1 m/s
  mass density: 755.457 ± 0.2 kg/m3
303.15 K
  speed of sound: 1222.5 ± 1 m/s
  mass density: 751.329 ± 0.21 kg/m3

## CCCNCCC [dipropylamine]
293.15 K
  speed of sound: 1209.2 ± 1.4 m/s
  mass density: 738.188 ± 0.32 kg/m3
298.15 K
  speed of sound: 1187.7 ± 1.3 m/s
  mass density: 733.683 ± 0.32 kg/m3
303.15 K
  speed of sound: 1167.1 ± 1.3 m/s
  mass density: 729.087 ± 0.32 kg/m3

## CCN(CC)CC [triethylamine]
293.15 K
  speed of sound: 1132.8 ± 1 m/s
  mass density: 727.515 ± 0.22 kg/m3
298.15 K
  speed of sound: 1111.1 ± 1 m/s
  mass density: 722.822 ± 0.22 kg/m3
303.15 K
  speed of sound: 1090.7 ± 1 m/s
  mass density: 718.201 ± 0.22 kg/m3
